Legend:
Polygonum convolvulus = assay: Post-emergence action against weeds, greenhouse, visual scoring; format: in vivo; conditions: 11 days after application
Experimental: (§1) Seeds or rhizome pieces of monocotyledonous and dicotyledonous weeds were placed in sandy loam soil in plastic pots, covered with soil and cultivated in a greenhouse under good growth conditions. Three weeks after sowing, the test plants were treated at the 2- to 4-leaf stage. The compounds according to the invention, formulated as wettable powders or as emulsion concentrates, were sprayed onto the green parts of the plants in various dosages at a water application rate of 100 to 800 I/ha (converted). After the test plants had been left to stand in the greenhouse for 10 to 28 days under optimum growth conditions, the effect of the preparations was scored visually in comparison to untreated controls.
(§2) 0%=no control 100%=complete control

Veronica persica = assay: as above; format: in vivo; conditions: 11 days after application
Experimental: as §1, §2

CCSC(C)CC1CC(=O)C(/C(CC)=N/OC/C=C/Cl)=C(O)C1 (stereo not drawn) [Compound B2-3, clethodim]
Polygonum convolvulus Control in % (Polygonum convolvulus; Table 4, 50 g of active ingredient/ha): 20%

CCO/N=C(\CC)C1=C(O)CC(c2c(C)cc(C)cc2C)CC1=O (stereo not drawn) [Compound B2-8, tralkoxydim]
Polygonum convolvulus Control in % (Polygonum convolvulus; Table 5, 150 g of ai/ha): 20%

CS(=O)(=O)c1ccc(C(=O)C2C(=O)CCCC2=O)c(Cl)c1COCC1CCCO1 (stereo not drawn) [Compound B3-3, tefuryltrione]
Polygonum convolvulus Control in % (Polygonum convolvulus; Table 3, 100 g of active ingredient/ha): 15%

CS(=O)(=O)c1ccc(C(=O)C2C(=O)CCCC2=O)c(Cl)c1COCC(F)(F)F [Compound B3-4, tembotrione]
Polygonum convolvulus Control in % (Polygonum convolvulus; Table 1, 50 g of ai/ha): 45%

COCCOCc1nc(C(F)(F)F)ccc1C(=O)C1C(=O)C2CCC(C2)C1=O (stereo not drawn) [Compound B3-5, 3-[[2-[(2-methoxyethoxy)methyl]-6-(trifluoromethyl)pyridin-3-yl]carbonyl]bicyclo[3.2.1]octane-2,4-dione]
Veronica persica Control in % (Veronica persica; Table 2, 25 g of ai/ha): 20%

CCOc1cc(Cl)cc(CC)c1C1=C(O)C2(CCC(OC)CC2)NC1=O (stereo not drawn) [Compound B4-1, cis-3-(4-chloro-2-ethoxy-6-ethylphenyl)-4-hydroxy-8-methoxy-1-azaspiro[4.5]dec-3-en-2-one]
Polygonum convolvulus Control in % (Polygonum convolvulus; Table 6, 7.5 g of ai/ha): 20%

sodium salt of 2-iodo-N-[(4-methoxy-6-methyl-1,3,5-triazin-2-yl)carbamoyl]benzenesulfonamide [Compound A-2]
Polygonum convolvulus Control in % (Polygonum convolvulus; Table 1, 2.5 g of ai/ha, 0%=no control, 100%=complete control): 10% | Polygonum convolvulus Control in % (Polygonum convolvulus; Table 3, 2.5 g of active ingredient/ha): 20% | Polygonum convolvulus Control in % (Polygonum convolvulus; Table 4, 2.5 g of active ingredient/ha): 0% | Polygonum convolvulus Control in % (Polygonum convolvulus; Table 5, 2.5 g of ai/ha): 0% | Polygonum convolvulus Control in % (Polygonum convolvulus; Table 6, 2.5 g of ai/ha): 0% | Veronica persica Control in % (Veronica persica; Table 2, 2.5 g of ai/ha, 0%=no control, 100%=complete control): 5%

Reference: patent US20100304971A1, “HERBICIDAL COMBINATION” (Bayer CropScience AG, priority 2008, published 2010)
